Data from patent US10287298B2, “Nitrogen-containing analogs of salinomycin, synthesis and use against cancer stem cells and malaria” (Centre National de la Recherche Scientifique (CNRS), priority 2014, dated 2019).

How the values were obtained:
[1] = Toxicity assessment (histology, body weight); assay type: in vivo, mice; settings: effective dose
Excerpt: FIG. 15 is a graph representing the mice body-weight during treatment with AM5. Error bars for mice body weight represent s.d. and correspond to correspond to five animals per group.
Histology. Organs from mice were removed at time of sacrifice. For morphological analyses, organs were fixed with 4% paraformaldehyde, paraffin embedded, and 4-μm sections were stained with hematoxylin and eosin (H&E). Sections were scanned at high resolution using a slide scanner (NanoZoomer 2.0-HT, Hamamatsu, Massy, France).

HMLER CD24low cells = assay: Reactive Oxygen Species (ROS) levels by flow cytometry (CM-H2DCF-DA); assay type: cell-based, Human; settings: cells treated for 48 h
Protocol: Reactive Oxygen Species (ROS) levels were measured by flow cytometry or by confocal scanning immunofluorescence microscopy using CM-H2DCF-DA (C6827, invitrogen). Briefly, U2OS and HMLER CD24low cells were treated as indicated in FIG. 11 (30 nM, 500 nM or 1 μM of salinomycine, AM5 or AM23 or untreated during 48 h). Then, these cells were trypsined and incubated with 5 μM CM-H2DCF-DA at 37° C. for 40 min, washed once with PBS and were counterstained with DAPI (0.5 μg/ml) to exclude non-viable cells. The mean fluorescence intensity was determined as ROS production by flow cytometry with LSRFortessa™ cytometer (BD Bioscience, San Jose, Calif.). For immunofluorescence microscopy analysis, cells were seeded on coverslips and were treated with salinomycine derivatives (injection in culture medium then treatment during 24 h, 48 h and 72 h). LysoTracker® Red DND-99 (L-7528, Life technologies) was used to visualize lysosomes. Then, cells were fixed with 4% PFA/PBS. DAPI was used to visualize nuclear DNA. Cell images were obtained using a Deltavision real-time microscope (Applied Precision) or an ApoTome.2 microscope (Zeiss). ImageJ was used for further image processing.
FACS analysis of ROS in cells treated for 48 h is represented in FIG. 17.

TICs = settings: cited from earlier work

Row | SMILES | body weight throughout treatment [1] | generic toxicity (integrity of peripheral tissues) ([1]; H&E histology) | ROS production under pharmacological inhibition of Cathepsin B (HMLER CD24low cells) | efficacy in reducing the amount of TICs relative to paclitaxel (TICs) [fold]
1 | C#CCN[C@@H]1C=C[C@]2(O[C@H]([C@@H](CC)C(=O)[C@@H](C)[C@@H](O)[C@H](C)C3O[C@@H](C(CC)C(=O)O)CC[C@@H]3C)[C@@H](C)C[C@H]2C)O[C@@]12CC[C@@](C)([C@H]1CC[C@](O)(CC)[C@H](C)O1)O2 (stereo partly shown) [AM5, Sal-Propargylamine] | constant body weight | No generic toxicity was observed | prevents AM5 from inducing ROS production | –
2 | CCC(C(=O)O)[C@H]1CC[C@H](C)C([C@@H](C)[C@H](O)[C@H](C)C(=O)[C@H](CC)[C@H]2O[C@]3(C=C[C@@H](O)[C@]4(CC[C@@](C)([C@H]5CC[C@](O)(CC)[C@H](C)O5)O4)O3)[C@H](C)C[C@@H]2C)O1 (stereo partly shown) [Salinomycine, Salinomycin] | – | – | – | 100
